Data on six compounds can be found in patent US8084467B2, “Pyrazole derivatives as cannabinoid receptor antagonists” (University of Connecticut, priority 2004, dated 2011).

In one assay the target is T1, CB1 cannabinoid receptor (Rattus norvegicus, UniProt P20272).
T1 construct: membranes were prepared from rat forebrain membranes; from tissue; host or cells: rat forebrain
The assay can be described thus: CB1 receptor binding, rat forebrain membranes, [3H] CP-55,940 displacement. The note with it: for Ki: 0.8 nM [3H] CP-55,940; for selectivity CB1: ratio of CB2 Ki to CB1 Ki. As for the experimental part:
Some of the inventive analogs were tested for CB2 receptor binding affinity and for CB1 receptor affinity (to determine selectivity). […] The lower the Ki value the higher the binding affinity. […]
Membranes, previously frozen at −80° C., were thawed on ice. To the stirred suspension was added three volumes of TME (25 mM Tris-HCl buffer, 5 mM MgCl2 and 1 mM EDTA) at a pH 7.4. The suspension was incubated at 4° C. for 30 min. At the end of the incubation, the membranes were pelleted and washed three times with TME.
(§1) The treated membranes were subsequently used in the binding assay described below. Approximately 30 μg of membranes were incubated in silanized 96-well microtiter plate with TME containing 0.1% essentially fatty acid-free bovine serum albumin (BSA), 0.8 nM [^3H] […] Radioactivity was detected using MicroScint 20 scintillation cocktail added directly to the dried filterplates, and the filterplates were counted using a Packard Instruments Top-Count. […] Data collected from three independent experiments performed with duplicate determinations was normalized between 100% and 0% specific binding for [^3H] […] The normalized data was analyzed using a 4-parameter nonlinear logistic equation to yield IC50 values.

For another assay, the target named is T2, CB2 receptor (Mus musculus, UniProt P47936).
T2 construct: membranes were prepared from frozen mouse spleen; from tissue; host or cells: mouse spleen
T2 sequence (P47936 whole entry): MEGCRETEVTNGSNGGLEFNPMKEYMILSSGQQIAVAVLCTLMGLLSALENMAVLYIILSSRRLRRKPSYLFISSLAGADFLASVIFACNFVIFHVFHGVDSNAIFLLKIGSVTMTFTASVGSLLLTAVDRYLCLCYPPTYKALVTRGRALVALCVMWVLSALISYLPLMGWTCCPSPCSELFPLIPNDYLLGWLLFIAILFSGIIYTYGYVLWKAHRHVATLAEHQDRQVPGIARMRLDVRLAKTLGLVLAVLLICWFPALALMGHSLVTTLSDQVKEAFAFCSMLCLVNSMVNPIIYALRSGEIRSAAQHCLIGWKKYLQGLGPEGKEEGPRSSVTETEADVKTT
Description: CB2 receptor binding, mouse spleen membranes, same manner as the CB1 binding assay. Particulars: for Ki: [3H] CP-55,940. As for the experimental part:
Some of the inventive analogs were tested for CB2 receptor binding affinity and for CB1 receptor affinity (to determine selectivity). […] The lower the Ki value the higher the binding affinity.
as §1
Silanized centrifuge tubes were used throughout to minimize receptor loss due to adsorption. The CB2 binding assay was conducted in the same manner as for the CB1 binding assay. The binding affinities (Ki) were also expressed in nanomoles (nM).

A further assay relates to rats. Description: Food-reinforced lever pressing in trained rats. In kind it is in vivo, rat. Particulars: IP, various dosages, tested ten minutes after injection, FIG. 1, p<0.05. Here is the method: 11 rats were trained to press a lever five times to receive a 45 mg food pellet. The training continued over a time period of several weeks. After the training period all rats received drug treatments once per week. The specific rat receiving a drug treatment and the dosage given were each randomly varied. The treatments comprised administration of a vehicle control solution or various dosages of inventive compound 1-5 in combination with the vehicle control solution. All injections were given IP. Ten minutes after injection the rat was placed in proximity to the lever.
FIG. 1 illustrates a mean (±SEM) number of lever presses in 30 min for treated animals. […] FIG. 1 illustrates a classic dose response curve wherein as the dose of drug (inventive compound 1-5) increases, lever pressing consistently decreases. Without wishing to be bound to any theory, applicants believe that inventive compound 1-5 antagonizes (blocks) the CB1 receptors, thereby suppressing appetite and leading to decreased lever pressing.

Setting [1] is: rat forebrain membranes, read-out: affinities Ki CB1.
[2] abbreviates: mouse spleen membranes, read-out: affinities Ki CB2.
Setting [3] is: affinities Ki CB2, mouse spleen membranes.

Molecules are shown by their SMILES. “And” between values parts separate entries of the source, which are not always exact repeats. Equal entries are not always repeated. Where two headings read alike, the source gives them in different places.

T1 sequence (P20272 whole entry): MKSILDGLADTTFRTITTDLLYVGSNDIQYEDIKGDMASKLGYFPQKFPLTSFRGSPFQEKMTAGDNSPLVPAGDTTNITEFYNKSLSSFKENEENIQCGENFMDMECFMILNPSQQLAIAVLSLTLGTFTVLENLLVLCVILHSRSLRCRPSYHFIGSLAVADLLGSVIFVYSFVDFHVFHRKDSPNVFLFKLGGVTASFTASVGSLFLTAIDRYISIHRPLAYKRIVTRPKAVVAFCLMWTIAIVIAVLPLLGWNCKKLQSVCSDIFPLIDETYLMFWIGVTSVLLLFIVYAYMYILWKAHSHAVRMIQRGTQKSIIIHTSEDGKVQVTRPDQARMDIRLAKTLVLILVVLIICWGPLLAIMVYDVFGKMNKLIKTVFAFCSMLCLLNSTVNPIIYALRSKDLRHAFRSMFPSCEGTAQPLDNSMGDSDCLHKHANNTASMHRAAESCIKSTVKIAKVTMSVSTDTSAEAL

What is called Ki is a dissociation constant, usually derived from enzyme kinetics or from competition with a known ligand. Regarding `O=C(NN1CCCCC1)c1nn(-c2ccc(Cl)cc2Cl)c(-c2ccc(-c3cccnc3)cc2)c1CO` [Compound 1-5], the Ki is 5.8 nM on CB1 cannabinoid receptor (setting [1]) and 2310 nM at CB2 receptor (setting [2]). At CB1 cannabinoid receptor, the “selectivity CB1” value stood at 398. Also, in the assay on rats, the “suppression of food-reinforced lever pressing (number of lever presses in 30 min)” value is “suppression of food-reinforced lever pressing was statistically significant”.
Turning to `COCc1c(C(=O)NC2CCCCC2)nn(-c2ccc(Cl)cc2Cl)c1-c1ccc(-c2ccsc2)cc1` [Compound 1-17], the inhibition constant (Ki) at CB1 cannabinoid receptor (setting [1]) worked out at 241 nM; at CB2 receptor (setting [2]) it was 968 nM. Also, the “selectivity CB1” value at CB1 cannabinoid receptor stood at 4.0.
Regarding `Cc1c(NC(=O)C2CCCCC2)nn(-c2ccc(Cl)cc2Cl)c1-c1ccc(Br)cc1` [Compound 3-14], the Ki on CB1 cannabinoid receptor (setting [1]) is 4230 nM; on CB2 receptor (setting [3]) it was 27100 nM. In addition, the “selectivity CB1” value on CB1 cannabinoid receptor came out at 6.4.
Turning to `Cc1c(C(=O)NC2CC(C)C3CC2C3(C)C)nn(CCCCCCl)c1-c1ccccc1` (stereo not shown) [Compound 4-7], the Ki is 4.73 nM and 4.7 nM on CB1 cannabinoid receptor (affinities Ki CB1, rat forebrain membranes); 2.76 nM and 2.8 nM at CB2 receptor (setting [3]). The “selectivity CB2” value at CB2 receptor (ratio of CB1 Ki to CB2 Ki) worked out at 1.7.
`Cc1c(C(=O)NN2CCCCC2)nn(-c2ccc(Cl)cc2Cl)c1-c1ccc(-c2nnn[nH]2)cc1` [Compound 2-1]: the Ki on CB1 cannabinoid receptor (setting [1]) was 455 nM; at CB2 receptor (setting [2]), 702 nM. Moreover, the “selectivity CB1” value on CB1 cannabinoid receptor is reported as 1.5.
For the compound `O=C(NC1CCCCC1)c1nn(-c2ccc(Cl)cc2Cl)c(-c2ccc(Br)cc2)c1CBr` [Compound 3-17], the Ki at CB1 cannabinoid receptor (setting [1]) stood at 46 nM; on CB2 receptor (setting [2]), 3480 nM. Besides, the “selectivity CB1” value at CB1 cannabinoid receptor came out at 75.5.
